Data taken from article PMC5365648, “Pharmacokinetics of the Novel Echinocandin CD101 in Multiple Animal Species” (Antimicrobial Agents and Chemotherapy, 2017).
Read-outs that look alike come from different tables or passages of the source. Starred links: 1 amine or outer side, 2 acyl side, 3 side chain; linkers in the order of their positions; H or OH if unused. Positions of bridges follow the written chain, without caps; N, C: chain ends. Non-standard residues stand in square brackets, D forms with d. Residues, ends and D or L forms follow the SMILES beside them. *: point of attachment. Orn(4R-OH,5R-OCH2CH2NMe3+) = C[N+](C)(C)CCO[C@@H](N[*:3])[C@H](O)C[C@H](N[*:1])C(=O)[*:2]; pTerphenylCO(4''-OnC5H11) = CCCCCOc1ccc(-c2ccc(-c3ccc(C(=O)*)cc3)cc2)cc1; hTyr(3S-OH,4S-OH) = N[C@H](C(=O)O)[C@H](O)[C@@H](O)c1ccc(O)cc1; Pro(3S-OH,4S-Me) = C[C@H]1CN[C@H](C(=O)O)[C@H]1O; Hyp = O=C(O)[C@@H]1C[C@@H](O)CN1

How the values were obtained:
[1] = Excretion in bile duct-cannulated rats; format: in vivo, Sprague-Dawley rats; conditions: for dose excreted at 120 h: bile duct-cannulated male Sprague-Dawley rats, single 5 mg/kg i.v. bolus, over 5 days, n = 3
Protocol: In one of three rat studies reported here, a single 5-, 15-, or 45-mg/kg dose of CD101 was administered by slow i.v. bolus (∼3 min) to Sprague-Dawley rats (n = 3 to 5/dose). Blood samples (via jugular vein catheter [JVC]) were drawn for plasma processing at 0.083, 0.25, 0.5, 1, 2, 4, 8, 24, 48, 120, 168, and 240 h after dosing. In the second rat study, conducted to assess tissue distribution, a single 5-mg/kg dose of CD101 was administered by slow i.v. bolus (∼3 min) to male Sprague-Dawley rats (n = 3 animals/time point). Blood samples (via cardiac puncture) were collected for plasma processing predose and at 0.083, 0.5, 1, 2, 4, 8, 24, 48, 72, 96, and 120 h postdose. In parallel with blood collection, animals were euthanized, and tissues (liver, lungs, kidneys, heart, spleen, and brain) were excised and frozen prior to analysis. In the third rat study, conducted to assess excretion, a single 5-mg/kg dose of CD101 was administered by slow i.v. bolus (∼3 min) to bile duct-cannulated male Sprague-Dawley rats (n = 3). Bile samples were collected from each animal into prelabeled bile collection tubes predose and at 0 to 8, 8 to 24, 24 to 48, 48 to 72, 72 to 96, and 96 to 120 h postdose; urine samples were collected from each animal at the same time points pre- and postdose.
For each of the pharmacokinetic studies, whole-blood samples (K3EDTA as anticoagulant) were collected and centrifuged within 30 min of collection. The resulting plasma was harvested and stored at −20°C until analysis. Tissue samples were homogenized by a bead-based homogenizer following the addition of deionized water to excised tissue in a 2:1 (vol/wt) ratio and stored at −20°C until analysis. Prior to analysis, plasma or homogenized tissue samples were quenched with acetonitrile (3:1, acetonitrile-plasma or tissue ratio) containing an appropriate internal standard (isotopically labeled d9-CD101 [mouse and rat] or a structural analog [dog, monkey, and chimpanzee]). Plasma and tissue homogenate concentrations (quantified against calibration standards processed the same way) were determined by reverse-phase, gradient liquid chromatography with tandem mass spectrometric detection (LC-MS/MS) using an AB-SCIEX API 3200Q/4000 mass spectrometry system. Calibration standard ranges were the following: 0.400 (lower limit of quantitation, [LLOQ]) to 200 μg/ml (CD101, mouse), 0.040 (LLOQ) to 10 μg/ml (anidulafungin, mouse), 0.002 (LLOQ) to 10 μg/ml (CD101, rat), 0.005 (LLOQ) to 10 μg/ml (anidulafungin, rat), 0.050 (LLOQ) to 10 μg/ml (CD101, dog), 0.020 (LLOQ) to 10 μg/ml (anidulafungin, dog), 0.010 (LLOQ) to 10 μg/ml (CD101, monkey), 0.001 (LLOQ) to 10 μg/ml (anidulafungin, monkey), 0.015 (LLOQ) to 10 μg/ml (CD101, chimpanzee), and 0.015 (LLOQ) to 10 μg/ml (anidulafungin, chimpanzee). When necessary, dilutions with blank matrix were made for samples that quantified above the upper limit of quantitation. The methods used in the analysis were qualified as fit for purpose: calibration standards were matrix matched with the exception that human plasma calibration standards were used to analyze chimpanzee plasma samples due to the rarity of blank chimpanzee plasma, and, for each analytical batch, triplicate calibration standards were included at the beginning, approximately in the middle, and at the end of the batch. Following analysis, quantitation was carried out by a calibration curve comprising the analyte/internal standard area ratio versus concentration. […]

[2] = Mouse pharmacokinetics, i.v. bolus; conditions: in vivo, iv, male ICR (CD-1) mice, single 1 mg/kg slow i.v. bolus, plasma, LC-MS/MS, noncompartmental from mean profile, n = 3/time point
Protocol: A single 1-mg/kg dose of CD101 or anidulafungin was administered by slow i.v. bolus (∼2 min) to male ICR (CD-1) mice (n = 3/group/time point). Blood samples (via cardiac puncture) were collected for plasma processing predose and at 0.083 (5 min), 0.5, 1, 4, 8, 24, 48, and 72 h postdose. PK profiles were generated based on mean results from the three animals sampled at each time point. In another study, a single 1-, 4-, or 16-mg/kg dose of CD101 was administered by i.p. injection to female ICR (CD-1) mice (n = 3/time point/dose), and blood samples (via cardiac puncture) were drawn for plasma processing at 1, 3, 6, 12, 24, 48, 72, and 96 h postdose.
For each of the pharmacokinetic studies, whole-blood samples (K3EDTA as anticoagulant) were collected and centrifuged within 30 min of collection. The resulting plasma was harvested and stored at −20°C until analysis. Tissue samples were homogenized by a bead-based homogenizer following the addition of deionized water to excised tissue in a 2:1 (vol/wt) ratio and stored at −20°C until analysis. Prior to analysis, plasma or homogenized tissue samples were quenched with acetonitrile (3:1, acetonitrile-plasma or tissue ratio) containing an appropriate internal standard (isotopically labeled d9-CD101 [mouse and rat] or a structural analog [dog, monkey, and chimpanzee]). Plasma and tissue homogenate concentrations (quantified against calibration standards processed the same way) were determined by reverse-phase, gradient liquid chromatography with tandem mass spectrometric detection (LC-MS/MS) using an AB-SCIEX API 3200Q/4000 mass spectrometry system. Calibration standard ranges were the following: 0.400 (lower limit of quantitation, [LLOQ]) to 200 μg/ml (CD101, mouse), 0.040 (LLOQ) to 10 μg/ml (anidulafungin, mouse), 0.002 (LLOQ) to 10 μg/ml (CD101, rat), 0.005 (LLOQ) to 10 μg/ml (anidulafungin, rat), 0.050 (LLOQ) to 10 μg/ml (CD101, dog), 0.020 (LLOQ) to 10 μg/ml (anidulafungin, dog), 0.010 (LLOQ) to 10 μg/ml (CD101, monkey), 0.001 (LLOQ) to 10 μg/ml (anidulafungin, monkey), 0.015 (LLOQ) to 10 μg/ml (CD101, chimpanzee), and 0.015 (LLOQ) to 10 μg/ml (anidulafungin, chimpanzee). When necessary, dilutions with blank matrix were made for samples that quantified above the upper limit of quantitation. The methods used in the analysis were qualified as fit for purpose: calibration standards were matrix matched with the exception that human plasma calibration standards were used to analyze chimpanzee plasma samples due to the rarity of blank chimpanzee plasma, and, for each analytical batch, triplicate calibration standards were included at the beginning, approximately in the middle, and at the end of the batch. Following analysis, quantitation was carried out by a calibration curve comprising the analyte/internal standard area ratio versus concentration. Analytical batch acceptance followed the general guidance that triplicate standards/quality controls be within ±20% for accuracy (percentage of nominal concentration) and ≤20% for precision (percent coefficient of variation).
Pharmacokinetic parameters were calculated by noncompartmental analysis using Phoenix WinNonlin (version 6.3; Pharsight, Mountain View, CA) from either individual or mean (mouse) concentration-time profiles. An unpaired t test was used to compare mean exposures from male and female rats.

CCCCCOc1ccc(-c2ccc(-c3ccc(C(=O)N[C@H]4C[C@@H](O)[C@@H](OCC[N+](C)(C)C)NC(=O)[C@@H]5[C@@H](O)[C@@H](C)CN5C(=O)[C@H]([C@@H](C)O)NC(=O)[C@H]([C@H](O)[C@@H](O)c5ccc(O)cc5)NC(=O)[C@@H]5C[C@@H](O)CN5C(=O)[C@H]([C@@H](C)O)NC4=O)cc3)cc2)cc1 [CD101] ({pTerphenylCO(4''-OnC5H11)}-[Orn(4R-OH,5R-OCH2CH2NMe3+)]T[Hyp][hTyr(3S-OH,4S-OH)]T[Pro(3S-OH,4S-Me)]; lactam 1-C)
dose excreted ([1]; male, Sprague-Dawley, rat, bile plus faeces, iv, bile duct-cannulated rats, 5 mg/kg i.v., bile plus feces): ~50%
biotransformation in plasma, bile samples, and excreta ([1]; nonradiolabeled material, rats, data not shown): no biotransformation was observed
dose excreted at 120 h ([1]; rat, faeces, iv, intact drug, read-out: mean cumulative amount excreted into feces, % of total dose): 27.7%
dose excreted at 120 h ([1]; rat, iv, intact drug, read-out: mean cumulative amount excreted into bile, % of total dose): 22.6%
dose excreted at 120 h ([1]; rat, urine, iv, read-out: total dose recovered in urine): 1.4%
AUC(0-inf) [2]: 166 µg·h/mL
AUC(0-t) [2]: 87.3 µg·h/mL
Cmax [2]: 9290 ng/mL
Tmax [2]: 4.98 min
half-life [2]: 25.2 h
clearance ([2]; read-out: CL (clearance)): 0.102 mL/min/kg
Vd ([2]; read-out: Vss (volume of distribution at steady state)): 0.206 L/kg
